Consider 6 molecules from publication PMC10049079, “Simulated Microgravity Alters P-Glycoprotein Efflux Function and Expression via the Wnt/β-Catenin Signaling Pathway in Rat Intestine and Brain” (International Journal of Molecular Sciences, 2023).

Read-outs that look alike come from different tables or passages of the source.

The conditions of series [1]: cited from earlier work.
Series [2] deals with P-gp. In words: Intracellular Rho123 fluorescence intensity in hCMEC/D3 cells (P-gp efflux function). It counts as cell-based, human. The following applies: Rho123 2 μM for 0.5 h.
Description: The cells were then washed with phosphate buffer saline (PBS) solution five times (2 mL each time) and treated with 2 mL of 0.1% Triton X-100 for 15 min. The cell solution was transferred to a black 96-well plate (Corning, NY, USA) with six wells in each group and 200 μL in each well after brief centrifugation. The fluorescence intensity of each well was detected using a microplate reader (BioTek, Thorold, ON, Canada). The excitation/emission wavelength of Rho123 was 485/535 nm. After 24, 48, or 72 h of SMG treatment, the hCMEC/D3 cells were treated with 2 mL of medium containing Rho123 (2 μM) for 0.5 h. Subsequent operations were performed in the same way as for Caco-2 cells.
In series [3] the test system is P-gp. Description: Ratio of Rho123 concentration in rat brain and blood (P-gp efflux function in rat brain). It counts as in vivo. The following applies: Rho123 0.5 mg/kg tail vein, 15 min post-injection. On the procedure:
After 45 min, the tail veins of all rats were injected with Rho123 (0.5 mg/kg, Solarbio, Beijing, China). At 15 min post-injection, all rats were anesthetized with chloral hydrate (350 mg/kg), and the blood was collected from the heart. After being subjected to transcardiac perfusion using the stroke-physiological saline solution from the heart, the brain samples of all rats were collected. In summary, 0.1 g of brain samples were homogenized with 0.4 mL of normal saline to obtain brain homogenate. Blank plasma and brain samples were collected from rats without a Rho123 injection and used to prepare Rho123 standard curve samples. The concentration of Rho123 in plasma and brain homogenate from all rats was detected by fluorescence intensity (λ excitation/λ emission = 485/535) using a microplate reader (BioTek, Thorold, ON, Canada). The Kp brain of Rho123 was used to evaluate P-gp efflux function.

Series [4] has as its system rat ileum. Description: Rat single-pass intestinal perfusion (SPIP) of acetaminophen. In kind it is in vivo. The following applies: for Ka / Peff / Concentration: SPIP of ileum; for Concentration: perfusate 2.5 mg/mL AP. As to the method:
At 1 h post-oral administration, all rats were anesthetized with urethane (1.75 g/kg) and placed in a supine position. Approximately 10 cm of ileum was separated from the intestinal segments. Tubes were carefully inserted at both ends of this segment and ligated with a sterile surgical line. The segment was rinsed with 37 °C Krebs–Ringer’s (KR) solution, balanced with KR solution (containing 2.5 mg/mL AP) at a flow rate of 0.2 mL/min for 15 min, and continuously perfused with KR solution (containing 2.5 mg/mL AP). The flow rate was set as 0.2 mL/min. The outflow perfusate was collected in a pre-weighed tube, which was changed quickly every 15 min and weighed. Six tubes of this fluid were collected for each rat. The perfusion solution and outflow perfusate were diluted in methanol–water (1:9, v:v) and analyzed using HPLC.
(§1) HPLC was performed on a Shimadzu LC-20AT HPLC system equipped with a UV detector (Shimadzu, Kyoto, Japan). Sample separation was conducted in a C18 column (5 μm, 4.6 × 150 mm). The mobile phases were methanol (A) and water (B) (1:9, v:v), and the flow rate was 1 mL/min. The volume of each sample injected into the HPLC system was 10 μL. The column temperature was maintained at 25 °C, and the detection wavelength was 275 nm. Ferulic acid (final concentration of 100 μg/mL) was used as an IS.

On the set-up of series [5]: method as in earlier work. The following applies: 21 and 28 days of SMG treatment in rats; cited from earlier work.
Series [6] can be described thus: Rat brain distribution of acetaminophen (Kp brain). In kind it is in vivo. The following applies: AP 1.2 g/kg oral, post-oral administration. On the procedure:
After 7 or 21 days of tail suspension, all rats were orally administered AP (1.2 g/kg). […] Rat brains were rapidly removed after perfusion with prechilled saline from rat hearts. Then, 0.1 mL of plasma from each rat was used to precipitate proteins with 300 μL of methanol. Approximately 0.1 g of the brain tissue of each rat was homogenized and ultrasonicated in 1 mL of methanol. The supernatant was removed and dried via vacuum centrifugation and reconstituted with methanol for HPLC. The brain distribution of AP was evaluated as the ratio of AP content in brain tissue (μg/g) to that in plasma (μg/mL).
as §1

The test system of series [7] is Wnt/β-catenin signaling pathway. Description: Western-Blot of Wnt/β-catenin pathway proteins and P-gp in hCMEC/D3 cells treated with IWP-O1. In kind it is cell-based, human. On the procedure: The hCMEC/D3 cells were purchased from iCell Bioscience Inc. (Shanghai, China) and cultured in RPMI 1640 medium containing 1% penicillin–streptomycin liquid (Solarbio, Beijing, China) and 10% fetal bovine serum (Tianhang, Zhejiang, China) in the same environment as that of Caco-2 cells. The hCMEC/D3 cells were seeded at a density of 6 × 10^4 cells/cm^2 and cultured for 2 days under normal gravity. The flasks were then filled with culture medium and exposed to SMG using random speed 3D clinostat for 24, 48, and 72 h. The hCMEC/D3 cells in the CON group were cultured under normal gravity in the same CO2 incubator.
(§2) FzM1.8 and IWP-O1 (Wnt/β-catenin signaling pathway-specific agonist and inhibitor, respectively) were dissolved in dimethyl sulfoxide (DMSO) and diluted with culture medium to obtain the desired concentrations. The final concentration of DMSO was 0.1%. FzM1.8 (2 μM) was added to the Caco-2 cells in the CON + FzM1.8 and SMG + FzM1.8 groups. IWP-O1 (1 nM) was added to the hCMEC/D3 cells in the CON + IWPO-1 and SMG + IWPO-1 groups. The cells in the SMG, SMG + FzM1.8, or SMG + IWPO-1 group were then exposed to SMG for 48 h.
(§3) Total proteins in the rat ileum mucosa and brain and Caco-2 and hCMEC/D3 cells were extracted using radio immunoprecipitation assay buffer containing protease inhibitors and protein phosphatase inhibitors. The supernatant was collected after centrifugation (12,000× g, 4 °C, and 10 min). The protein concentration was tested using Coomassie brilliant blue staining. The supernatant was mixed with 4× protein loading buffer containing dithiothreitol (Solarbio, Beijing, China) and […] in a boiling water bath for 10 min. […] The gray value of each band was collected using Image Lab^TM Software (version 3.0, Bio-Rad, Hercules, CA, USA), and the relative expression levels of proteins were expressed as the ratio of the gray value of the target band to the total proteins in the same lane.

The test system is the same in series [8]. Description: Western-Blot of Wnt/β-catenin pathway proteins and P-gp in Caco-2 cells treated with FzM1.8. It counts as cell-based, human. As to the method: Caco-2 cells were purchased from the Chinese Academy of Sciences (Shanghai, China) and maintained in MEM/EBSS medium (Hyclone, UT, USA) supplemented with 10% fetal bovine serum (Sofar, Beijing, China), 1% penicillin–streptomycin liquid (Solarbio, Beijing, China), and 1% nonessential amino acids (Gibco, New York, NY, USA) in a humidified 5% CO2 atmosphere at 37 °C. The Caco-2 cells were seeded in a T-12.5 flask (2 × 10^4 cells/cm^2) and cultured for 21 days under normal gravity. The T-12.5 flask was filled with culture medium while preventing bubble formation and then exposed to SMG using random speed 3D clinostat (National Space Science Center, Beijing, China) for 12, 24, 48, and 72 h. The Caco-2 cells in the CON group were cultured under normal gravity in the same CO2 incubator.
as §2, §3

Setting [9] is: 7 days CON + Ver (30 mg/kg oral) rats.
[10] abbreviates: 21 days CON + Ver (30 mg/kg oral) rats.

For the molecule `CC(C)Cc1ccc(C(C)C(=O)O)cc1` (stereo not drawn) [ibuprofen], the “Absorption in humans under SMG” value in series [1] (in vivo, po) is “promoted”.
With `CC(CN1c2ccccc2Sc2ccccc21)N(C)C` (stereo not drawn) [promethazine], the “Absorption in humans under SMG” value in series [1] (oral P-gp substrate drugs, humans under SMG) was “promoted”.
On to `COC(=O)c1ccccc1-c1c2ccc(=N)cc-2oc2cc(N)ccc12` [Rho123, rhodamine 123], for which the “Increase in fluorescence intensity of intracellular Rho123” value turned out to be 13.4% in series [2] (48 h SMG vs CON) and 16.7% in series [2] (72 h SMG vs CON). The “Increase of ratio of Rho123 concentration in rat brain to that in the blood” value amounted to 40.5% in series [3] (7 days SMG vs CON) and 173.8% in series [3] (21 days SMG vs CON).
Turning to `CC(=O)Nc1ccc(O)cc1` [AP, acetaminophen], the Ka was 8.93 ± 0.37 * 10^−2 min^−1 in series [4] (setting [9]); 7.75 ± 0.11 10^−2 min^−1 in series [4] (7 days CON rats); 8.55 ± 0.21 ** 10^−2 min^−1 in series [4] (7 days SMG rats); 7.44 ± 0.18 ** 10^−2 min^−1 in series [4] (setting [10]); 5.66 ± 0.19 10^−2 min^−1 in series [4] (21 days CON rats); 8.76 ± 0.47 ** 10^−2 min^−1 in series [4] (21 days SMG rats). The Peff in series [4] (setting [9]) is 10.77 ± 0.61 * 10^−3 cm/min; in series [4] (7 days CON rats), 8.86 ± 0.16 10^−3 cm/min; in series [4] (7 days SMG rats), 10.11 ± 0.33 ** 10^−3 cm/min; in series [4] (setting [10]), 8.41 ± 0.25 ** 10^−3 cm/min; in series [4] (21 days CON rats), 6.01 ± 0.23 10^−3 cm/min; in series [4] (21 days SMG rats) it was 10.47 ± 0.76 ** 10^−3 cm/min. For the same molecule, the Concentration in series [4] (setting [9]) came to 1516 ± 52 µg/mL; in series [4] (7 days CON rats), 1684 ± 15 µg/mL; in series [4] (7 days SMG rats) it was 1571 ± 29 µg/mL; in series [4] (setting [10]) it was 1727 ± 25 µg/mL; in series [4] (21 days CON rats), 1965 ± 33 µg/mL; in series [4] (21 days SMG rats) it was 1540 ± 66 µg/mL. Moreover, the “Increase of Ka in rat ileum” value in series [4] (7 days SMG vs CON) came out at 10.3%; in series [4] (21 days SMG vs CON) it was 54.8%. For the same molecule, the “Increase of Peff in rat ileum” value in series [4] (7 days SMG vs CON) came to 14.1%; in series [4] (21 days SMG vs CON), 74.2%. Moreover, the “Absorption under SMG” value in series [5] and in series [1] (80 days of SMG treatment in humans) was “promoted” in each case. The Absorption in astronauts result in series [1] (two astronauts, mission day 2 compared with before the flight) is on record as “increased”. The “Increase of brain-to-plasma concentration ratio (Kp brain)” value is “approximately 22.0%” in series [6] (7 days SMG vs CON) and 40.7% in series [6] (21 days SMG vs CON).
As to `O=C(Cn1nnc(-c2ccncc2)c1-c1ccccc1)Nc1ccc(-c2ccccc2)cn1` [IWP-O1], in series [7] (1 nM before 48 h SMG, vs SMG group), the “P-gp expression under SMG (Western-Blot)” value is given as “down-regulate”. Further, in series [7] (1 nM, 48 h, vs CON group), the “P-gp expression (Western-Blot)” value is on record as “decreased” and the “Wnt/β-catenin signaling pathway (Western-Blot)” value is on record as “inhibited”.
For the molecule `O=C(Nc1cc(O)cc(C(=O)O)c1)Nc1ccc2ccccc2c1` [FzM1.8], the “P-gp expression under SMG (Western-Blot)” value in series [8] (2 μM before 48 h SMG, vs SMG group) was “up-regulate”. In addition, in series [8] (2 μM, 48 h, vs CON group), the “P-gp expression (Western-Blot)” value is “increased” and the “Wnt/β-catenin signaling pathway (Western-Blot)” value is “activated”.
